For assay [1], the system named is total glutathione. Nature of the assay: Total glutathione levels in neurons by HPLC. Type of assay: cell-based, mouse. The conditions noted are these: 0.1 or 1.0 mM NAC, presence or absence of hemin. The source says:
Cysteine is the rate-limiting precursor for the synthesis of glutathione with γ-glutamylcysteine synthetase and glutathione synthetase. NAC undergoes hydrolysis to liberate cysteine, which is transported by the alanine-serine cysteine (ASC) system. To determine whether NAC-induced protection from heme requires glutathione, glutathione synthesis was inhibited using buthionine sulfoximine (BSO), a selective inhibitor of γ-glutamylcysteine synthetase, the rate limiting step in glutathione synthesis. The necessity of a NAC-induced increase in glutathione, and whether NAC-induced protection could be abrogated were evaluated. A reduction in glutathione levels was measured using HPLC. […] In the presence of hemin, the absolute levels of glutathione were reduced. […] Significance was determined by two-way ANOVA followed by Bonferroni's comparison test, from three independent experiments.

The subject of assay [2] is Chac1. Nature of the assay: Chac1 gene expression in ICH mice by quantitative RT-PCR. Type of assay: in vivo, mouse. The conditions noted are these: ICH mice after NAC treatment. The source says:
Total glutathione levels were unchanged after NAC treatment in ICH mice. […] FIG. 29 illustrates an experimental design to study the effect of NAC on total glutathione levels in the striatum of a collagenase infusion mouse model of ICH. […] FIG. 31 illustrates that ICH-induced ATF4 dependent Chac1 degraded glutathione to 5-oxoproline.

The test system of assay [3] is total glutathione. Kind of assay: Total glutathione levels in striatum of collagenase-infused ICH mice by HPLC. Type of assay: in vivo, mouse. The conditions noted are these: ICH mice after NAC treatment. The source says:
Total glutathione levels were unchanged after NAC treatment in ICH mice. […] FIG. 29 illustrates an experimental design to study the effect of NAC on total glutathione levels in the striatum of a collagenase infusion mouse model of ICH.

For assay [4], the system named is ALOX5. Kind of assay: ALOX5 mRNA levels in hemin-treated primary cortical neurons (RT-PCR). Format: cell-based, mouse. As to conditions: NAC 1 mM. As to the method: (§1) Quantitative real-time PCR: Total RNA was prepared using a NucleoSpin® RNA II kit. Duplex real-time PCR reactions were performed with gene expression assays using 6-carboxyfluorescein-labeled probes for ALOX5 (Mm 01182747_m1) and ALOX5AP (Mm 01218551_m1). Expression levels were normalized to β-actin gene expression levels, which were determined with a VIC™-labeled probe. All experiments were performed using a real-time PCR system.
(§2) The abilities of hemin and NAC to induce increases in ALOX5 and ALOX AP mRNA levels were examined. […] Consistent with the protein data (FIG. 17), hemin induced increases in ALOX AP and ALOX5 mRNA levels in a time-dependent manner.

Assay [5] in a line: Total iron levels in brain of ICH mice by X-ray fluorescence. Type of assay: in vivo, mouse. The conditions noted are these: 7 days. The source says:
In vivo metal distribution imaging analysis by X-ray fluorescence: Seven days following collagenase-induced ICH, mice were euthanized and perfused with trace metal-free PBS. The brains were removed from the mice and flash frozen. Tissue samples were cut into 20 μm-thick sections and deposited onto 4 μm-thick Ultralene® films. The iron and zinc contents of the tissue samples were imaged using X-ray fluorescence microscopy (XFM). X-ray fluorescence spectra were collected using an X-ray excitation energy of 11 keV and a beam size of 9 μm (vertical)×17 μm (horizontal) in 15-μm steps, with an integration time of 7 sec/pixel. The intensity for each metal was quantified by integrating the area under the curve for the respective peak in the XRF spectrum (iron Kα=6405 eV and zinc Kα=8637 eV).
National Institute of Standards and Technology thin film standard reference materials 1832 and 1833 were used to calculate concentrations and to normalize for any differences between the multiple beam time runs required to collect the data. Molar concentrations were determined by dividing the […] values by the product of the volume of X-ray beam on the sample (area×thickness of the sample), the density of tissue (estimated to be 0.9 g/cm^3), and the molecular weight of the element.
The ability of NAC to affect total metal levels in the brain was evaluated. […]

For assay [6], the system named is ALOX AP. Nature of the assay: ALOX AP mRNA levels in hemin-treated primary cortical neurons (RT-PCR). Type of assay: cell-based, mouse. As to conditions: NAC 1 mM. The procedure: as §1, §2
In assay [7] the target is T1, recombinant ALOX5 (Homo sapiens, UniProt P09917).
T1 sequence (P09917 1-674): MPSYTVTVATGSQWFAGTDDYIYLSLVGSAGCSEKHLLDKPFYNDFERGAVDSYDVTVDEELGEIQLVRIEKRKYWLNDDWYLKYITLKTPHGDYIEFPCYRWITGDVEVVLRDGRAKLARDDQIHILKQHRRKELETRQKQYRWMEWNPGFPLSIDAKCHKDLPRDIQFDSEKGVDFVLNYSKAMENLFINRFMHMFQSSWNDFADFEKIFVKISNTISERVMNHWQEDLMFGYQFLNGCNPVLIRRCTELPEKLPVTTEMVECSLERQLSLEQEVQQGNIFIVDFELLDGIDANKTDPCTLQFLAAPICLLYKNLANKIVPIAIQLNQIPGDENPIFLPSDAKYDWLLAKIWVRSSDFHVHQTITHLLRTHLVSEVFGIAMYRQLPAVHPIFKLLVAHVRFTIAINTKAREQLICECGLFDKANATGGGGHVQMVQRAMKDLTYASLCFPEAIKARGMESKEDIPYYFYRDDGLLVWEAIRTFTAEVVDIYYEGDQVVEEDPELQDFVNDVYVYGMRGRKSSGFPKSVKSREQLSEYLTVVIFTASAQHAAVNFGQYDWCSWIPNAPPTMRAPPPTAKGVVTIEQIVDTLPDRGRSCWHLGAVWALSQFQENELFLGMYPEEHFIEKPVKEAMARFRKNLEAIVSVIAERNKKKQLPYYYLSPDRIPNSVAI
Nature of the assay: Lipoxygenase UV/Vis-based IC50 assay with recombinant ALOX5. Type of assay: biochemical. The conditions noted are these: test tube assay. The procedure:
Lipoxygenase UV/Vis-based IC50 assay: Inhibition potencies were determined by following the formation of conjugated diene products, 5-HpETE [ε=27000 M^−1 cm^−1 for AA turnover) at 234 nm using a UV/Vis spectrophotometer. All reaction mixtures were 2 mL in volume, and the reaction mixtures were constantly stirred using a magnetic stir bar at room temperature (23° C.). All reactions were carried out in a buffer containing 200 μM ATP and 10 μM AA. The AA concentration of a sample was verified by full turnover with soybean-1 lipoxygenase and quantifying the product concentration. Inhibitors were stored in DMSO at −20° C. Enzymatic reactions were initiated by adding approximately 100 nM-300 nM ammonium sulfate-precipitated wildtype enzyme. IC50 values were obtained by determining the enzymatic rate at a minimum of five inhibitor concentrations, plotting the enzymatic rate against inhibitor concentration, and performing a hyperbolic saturation curve fit. Inhibitor concentrations were assayed in duplicate or triplicate.
Significance was determined by two-way ANOVA and Bonferroni's post hoc test.

Turning to `CC(=O)N[C@@H](CS)C(=O)O` [NAC, N-acetylcysteine], the “Total glutathione levels in neurons” value in assay [1] is given as “dose-dependently increased the total glutathione levels”. The “ATF4-regulated Chac1” value in assay [2] is “decreased after NAC treatment”. In addition, the “Total glutathione levels in striatum” value in assay [3] is “unchanged”. The “Hemin-induced ALOX5 expression” value in assay [4] is recorded as “blocked the expression of ALOX5”. Also, in assay [5], the “Iron levels and iron distribution in brain following ICH” value was “no effect on iron levels or iron distribution”. Moreover, the “Hemin-induced ALOX AP expression” value in assay [6] is “blocked the expression of ALOX AP”. Besides, the “Inhibition of ALOX5 activity” value in assay [7] is listed as “did not inhibit ALOX5 activity”.

The values are drawn from patent US11963939B2, “Use of N-acetylcysteine to treat central nervous system disorders” (Neuronasal, Inc., priority 2017, dated 2024).
